Target: T1, papain (Carica papaya, UniProt P00784)
T1 construct: purchased Sigma Chem. Co
T1 sequence (P00784 134-345): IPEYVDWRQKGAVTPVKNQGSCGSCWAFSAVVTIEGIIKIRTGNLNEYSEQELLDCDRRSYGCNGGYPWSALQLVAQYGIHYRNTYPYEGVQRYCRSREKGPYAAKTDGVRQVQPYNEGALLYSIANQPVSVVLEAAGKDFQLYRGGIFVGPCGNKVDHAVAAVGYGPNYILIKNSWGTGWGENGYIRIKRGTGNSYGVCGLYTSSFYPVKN
Experiment: Papain inhibitory activity (milk casein proteolysis)
Type: biochemical
Design: unit not given beside the values
Details: amount of inhibitor for 50% inhibition; pH 6.8, 40° C., casein substrate
Description: Papain inhibitory activity of the compounds of the present invention was assayed as follows: To 0.5 ml of a solution of papain (80 μg/ml, Sigma Chem. Co., 2x, cry.), were added 0.25 ml of 40 mM cysteine dissolved in 20 mM disodium ethylenediamine tetraacetic acid solution adjusted pH to 6.8 with sodium hydroxide and 0.25 ml of 33 mM phosphate buffer (pH 6.8) with or without inhibitor. After incubation for 15 minutes at 40° C., the resulting mixture was added to 5 ml of 1% milk casein solution in the same buffer as described above, and further incubated for 10 minutes at 40° C. Then the mixture was mixed with 5 ml of 0.44 M trichloroacetic acid solution and followed by filtration with a sheet of Toyo filter paper No. 4.
The extinction of the filtrate was read at 280 nm. The percent inhibition was calculated from the formula, 100×(B-A)/B; wherein B stands for the absorbance without inhibitor and A for the absorbance with inhibitor. The compound Nos. in Table 2 are as defined in Examples as described hereinafter.

SMILES | ID50
O=C(Nc1ccccc1)[C@@H]1O[C@H]1C(=O)Oc1ccccc1 (relative stereo) [Compound No. 28, phenyl N-phenyl-2,3-epoxysuccinamate] | 6.41 γ
O=C(NC1CCCCC1)[C@H]1O[C@@H]1C(=O)OC1CCCCC1 (relative stereo) [Compound No. 44, Cyclohexyl N-cyclohexyl-2,3-epoxysuccinamate] | 3.14 γ
CC#CCOC(=O)[C@H]1O[C@@H]1C(=O)NCC (relative stereo) [Compound No. 41, 2'-Butynyl N-ethyl-2,3-epoxysuccinamate] | 15.23 γ
CCOC(=O)[C@@H]1O[C@H]1C(=O)Nc1cccc(C(F)(F)F)c1 (relative stereo) [Compound No. 2, ethyl N-3'-trifluoromethylphenyl-2,3-epoxysuccinamate] | 40.30 γ
O=C(OCc1ccccc1)[C@@H]1O[C@H]1C(=O)N1CCCCC1 (relative stereo) [Compound No. 78, Benzyl N-pentamethylene-2,3-epoxysuccinamate] | 34.23 γ
CC(C)NC(=O)[C@H]1O[C@@H]1C(=O)OCc1ccccc1 (relative stereo) [Compound No. 67, Benzyl N-isopropyl-2,3-epoxysuccinamate] | 5.14 γ
O=C(Nc1ccccc1)[C@@H]1O[C@H]1C(=O)OCCC1CCCC1 (relative stereo) [Compound No. 26, 2'-cyclopentylethyl N-phenyl-2,3-epoxysuccinamate] | 2.08 γ
CCCOC(=O)[C@@H]1O[C@H]1C(=O)Nc1ccc(I)cc1 (relative stereo) [Compound No. 36, Propyl N-4'-iodophenyl-2,3-epoxysuccinamate] | 4.04 γ
CCOC(=O)[C@@H]1O[C@H]1C(=O)NCCc1ccccc1 (relative stereo) [Compound No. 15, ethyl N-phenethyl-2,3-epoxysuccinamate] | 26.04 γ
CNC(=O)[C@H]1O[C@@H]1C(=O)OCc1ccccc1 (relative stereo) [Compound No. 91, Benzyl N-methyl-2,3-epoxysuccinamate] | 9.68 γ
CC(C)OC(=O)[C@@H]1O[C@H]1C(=O)Nc1ccccc1 (relative stereo) [Compound No. 93, isopropyl N-phenyl-2,3-epoxysuccinamate] | 21.55 γ
O=C(Nc1cccc(F)c1)[C@H]1O[C@@H]1C(=O)OCc1ccccc1 (relative stereo) [Compound No. 49, Benzyl N-3'-fluorophenyl-2,3-epoxysuccinamate] | 3.94 γ
O=C(Nc1ccccc1)[C@@H]1O[C@H]1C(=O)OCCCC1CCCCC1 (relative stereo) [Compound No. 27, 3'-cyclohexylpropyl N-phenyl-2,3-epoxysuccinamate] | 3.05 γ
COC(=O)[C@H]1O[C@@H]1C(=O)Nc1ccccc1 (relative stereo) [Compound No. 50, methyl N-phenyl-2,3-epoxysuccinamate] | 16.95 γ
COC(=O)[C@@H]1O[C@H]1C(=O)NC(C)C (stereo in doubt) [Compound No. 34, Methyl N-isopropyl-2,3-epoxysuccinamate] | 32.35 γ
O=C(O)C1OC1C(=O)N1CCCC1C(=O)O (centres unmarked) [Compound No. 106, N-1'-carboxytetramethylene-2,3-epoxysuccinamic acid] | 0.301 γ
CC(C)CCNC(=O)[C@H]1O[C@@H]1C(=O)O (relative stereo) [Compound No. 97, potassium N-isoamyl-2,3-epoxysuccinamate] | 0.266 γ
CCOC(=O)C1OC1C(=O)N1CCCC1C(=O)OC (centres unmarked) [Compound No. 87, ethyl N-1'-carbomethoxytetramethylene-2,3-epoxysuccinamate] | 98.10 γ
CN1CCN(C(=O)[C@H]2O[C@@H]2C(=O)OCC2CCCC2)CC1 (relative stereo) [Compound No. 72, Cyclopentanemethyl N-N'-methylaminodiethylene-2,3-epoxysuccinamate] | 146.51 γ
CCOC(=O)[C@@H]1O[C@H]1C(=O)Nc1cccc(C(C)=O)c1 (relative stereo) [Compound No. 3, ethyl N-3'-acetylphenyl-2,3-epoxysuccinamate] | 34.72 γ
CCOC(=O)c1ccccc1NC(=O)[C@@H]1O[C@H]1C(=O)OCC (relative stereo) [Compound No. 7, ethyl N-2'-carboethoxyphenyl-2,3-epoxysuccinamate] | 105.93 γ
CCOC(=O)[C@@H]1O[C@H]1C(=O)NCc1ccco1 (relative stereo) [Compound No. 14, ethyl N-furfuryl-2,3-epoxysuccinamate] | 67.57 γ

SMILES | ID50
CCOC(=O)[C@@H]1O[C@H]1C(=O)N1CCCCC1C(=O)OCc1ccccc1 (relative stereo) [Compound No. 92, Ethyl N-1'-carbobenzoxypentamethylene-2,3-epoxysuccinamate] | 120.10 γ
CCOC(=O)[C@@H]1O[C@H]1C(=O)Nc1c(Br)cc(Br)cc1Br (relative stereo) [Compound No. 9, ethyl N-2',4',6'-tribromophenyl-2,3-epoxysuccinamate] | 120.19 γ
CCOC(=O)[C@H]1O[C@@H]1C(=O)N(CC)CC (relative stereo) [Compound No. 57, ethyl N,N-diethyl-2,3-epoxysuccinamate] | 46.30 γ
CCOC(=O)[C@@H]1O[C@H]1C(=O)NCc1ccccc1 (relative stereo) [Compound No. 13, ethyl N-benzyl-2,3-epoxysuccinamate] | 13.30 γ
CCNC(=O)[C@H]1O[C@@H]1C(=O)OC (relative stereo) [Compound No. 54, methyl N-ethyl-2,3-epoxysuccinamate] | 10.07 γ
O=C(O)[C@@H]1O[C@H]1C(=O)N1CCCC1 (relative stereo) [Compound No. 103, Sodium N-tetramethylene-2,3-epoxysuccinamate] | 13.42 γ
C=CCOC(=O)[C@@H]1O[C@H]1C(=O)Nc1ccccc1 (relative stereo) [Compound No. 30, allyl N-phenyl-2,3-epoxysuccinamate] | 3.68 γ
CCCN(C(=O)[C@H]1O[C@@H]1C(=O)OCC)c1ccccc1 (relative stereo) [Compound No. 59, ethyl N-propyl-N-phenyl-2,3-epoxysuccinamate] | 154.50 γ
COC(=O)[C@H]1O[C@@H]1C(=O)NC(C)C (stereo in doubt) [Compound No. 60, Methyl N-isopropyl-2,3-epoxysuccinamate] | 32.35 γ
O=C(O)[C@@H]1O[C@H]1C(=O)NCc1ccccc1 (relative stereo) [Compound No. 96, potassium N-benzyl-2,3-epoxysuccinamate] | 0.158 γ
CCOC(=O)[C@H]1O[C@@H]1C(N)=O (relative stereo) [Compound No. 55, ethyl 2,3-epoxysuccinamate] | 3.14 γ
CC(C)CCOC(=O)[C@H]1O[C@@H]1C(=O)Nc1ccccc1 (relative stereo) [Compound No. 43, Isoamyl N-phenyl-2,3-epoxysuccinamate] | 3.01 γ
CCOC(=O)[C@@H]1O[C@H]1C(=O)Nc1cccc(F)c1 (relative stereo) [Compound No. 10, ethyl N-3'-fluorophenyl-2,3-epoxysuccinamate] | 32.05 γ
CCOC(=O)[C@@H]1O[C@H]1C(=O)NCCC(C)C (relative stereo) [Compound No. 17, ethyl N-isoamyl-2,3-epoxysuccinamate] | 28.41 γ
CCNC(=O)[C@H]1O[C@@H]1C(=O)O (relative stereo) [Compound No. 102, Potassium N-ethyl-2,3-epoxysuccinamate] | 1.34 γ
CCOC(=O)[C@@H]1O[C@H]1C(=O)NC1CCCC1 (relative stereo) [Compound No. 18, ethyl N-cyclopentyl-2,3-epoxysuccinamate] | 22.36 γ
CC#CCOC(=O)[C@@H]1O[C@H]1C(=O)NCc1cccs1 (relative stereo) [Compound No. 42, 2'-Butynyl N-thenyl-2,3-epoxysuccinamate] | 14.15 γ
CCCOC(=O)[C@H]1O[C@@H]1C(=O)Nc1ccccc1 (relative stereo) [Compound No. 62, Propyl N-phenyl-2,3-epoxysuccinamate] | 6.16 γ
C#CCOC(=O)[C@@H]1O[C@H]1C(=O)N1CCCCC1 (relative stereo) [Compound No. 74, propargyl N-pentamethylene-2,3-epoxysuccinamate] | 39.62 γ
O=C(O)[C@@H]1O[C@H]1C(=O)NCC1CCCC1 (relative stereo) [Compound No. 108, N-Cyclopentanemethyl-2,3-epoxysuccinamic acid] | 0.234 γ
CCOC(=O)[C@H]1O[C@@H]1C(=O)NCCCCNC(=O)OCc1ccccc1 (relative stereo) [Compound No. 68, ethyl N-carbobenzoxyaminobutyl-2,3-epoxysuccinamate] | 24.04 γ
O=C(O)[C@@H]1O[C@H]1C(=O)Nc1ccccc1 (relative stereo) [Compound No. 105, N-phenyl-2,3-epoxysuccinamic acid] | 0.278 γ

From patent US4387238A, “Epoxysuccinamic acid compounds” (Taisho Pharmaceutical Co., Ltd., priority 1978, dated 1983)
